Data as given in patent US20100003217A1, “Compounds and Pharmaceutical Compositions for the Treatment of Viral Infections” (priority 2008, published 2010).
Where “and” joins values, the source holds several entries; their conditions need not be identical. Equal values may be shown once.

System: monkey primary hepatocytes
Experiment: Metabolic disposition of [^14C]-Compound 1 and [^14C]-2′-C-methyl guanosine in monkey primary hepatocytes (incubation medium, cellular extracts, nucleotide levels)
Assay type: in vitro ADME, Cynomolgus monkey
Procedure: Primary hepatocytes: Freshly isolated cells from animal and human liver were obtained in suspension on ice. Cells were pelleted by centrifugation at 70-75×g (rat) or 95-90×g (monkey and human) and resuspended at 0.8 million cells per mL of platting medium (William's E supplemented with 5% FBS, 0.5% penicillin-streptomycin, 1% L-glutamine, 4 μg/mL insulin and 1 μM dexamethasone). Multi-well collagen I-coated plates (rat tail collagen type I; 12- or 6-well) were then seeded by addition of 1 mL (12-well; 0.8 million cells/well) or 2 mL (6-well; 1.6 million cells/well) of cell suspension. The plates were gently shaken to evenly distribute the cells and placed in an incubator at 37° C. for approximately 4 to 6 hours to allow cells to attach. Once cells were attached, the platting medium was removed and replaced with hepatocyte culture medium (William's E supplemented with penicillin-streptomycin, 1% L-glutamine, 1% insulin-transferrin-selenium and 0.1 μM dexamethasone). Cells were left overnight in an incubator at 37° C. to acclimatize to culture and the medium.
Hepatocyte incubations with radiolabeled Compound 1 and 2′-C-methyl guanosine, both labeled in the C-8 position of the guanine moiety, were conducted at a final volume of 2.0 mL hepatocyte culture medium/well ([…]). Culture medium from overnight incubation of cells was removed and replaced with fresh medium, pre-warmed to 37° C., containing 1 or 10 μM [^14C]-Compound 1 ([…]) or [^14C]-2′-C-methyl guanosine (127 DPM/μmol) from a stock solution in DMSO (final DMSO concentration was 0.1%) or 50% ethanol (final ethanol concentration was 0.2%). After 1, 4, 8 and 24 hours, 0.5-1.0 mL of incubation medium was removed and stored at −20° C. until analysis (described below). The remaining medium was discarded and cell monolayers were carefully washed two times with ice-cold PBS. Following the last wash, all PBS was carefully removed and 1.0 mL of extraction solution (ice-cold 70% methanol) added. Cells were scrapped off and suspended in the extraction solution, transferred to 2 mL polypropylene microfuge tubes and intracellular contents extracted overnight at −20° C.
Preliminary identification of putative metabolites was conducted by comparing the retention time of observed metabolites in incubation medium and cellular extracts with retention times obtained with chemically synthesized standards using the chromatography conditions described below. Further identification of 2′-C-methyl guanosine nucleotides (mono-, di- and triphosphate) was carried out by incubating cellular extract samples with alkaline phosphatase (10 units for 60 min at 37° C.) and comparing the HPLC retention times of the resulting nucleosides with that of authentic 2′-C-methyl guanosine.
Cellular extracts were prepared by centrifugation at 16,000 RCF using an Eppendorf microcentrifuge (Eppendorf, Model 5415D) for 10 min to remove cellular debris. An aliquot of 5-10 μL of the supernatant was added to 5 mL of EcoLite™ (MP, Irvine, Calif.) liquid scintillation cocktail and radioactivity measured by liquid scintillation counting (LSC) using a Beckman Coulter LS6500 multipurpose liquid scintillation counter (Beckman Instruments, Fullerton, Calif.). The remaining sample was then dried using a Labconco refrigerated centrivap concentrator (Labconco, Kansas City, Mo.). Dry extracts were reconstituted in 120 μL of HPLC-grade water and centrifuged at 16,000 RCF using an Eppendorf microcentrifuge for 10 min. Prior to HPLC analysis (described below), radioactivity of the concentrated extracts was measured by LSC using 5 μL aliquots. Extraction recovery was then determined by comparing total radioactivity in extracts before and after drying. The remaining extract was then analyzed by HPLC with online radioactivity detection using a Flow Scintillation Analyzer Radiomatic™ 515TR. Radioactivity in the separated components was quantified by integrating the peaks using Flo-One™ Software (Perkin Elmer Life Sciences). […]

Structure (SMILES): CC(C)(CO)C(=O)SCCOP(N)(=O)OC[C@H]1O[C@@H](n2cnc3c(=O)[nH]c(N)nc32)[C@](C)(O)[C@@H]1O (mixture of isomers) [Compound 3, {9-[(2R)2-C-methyl-β-D-ribo-furanosyl]-guanin}-5′-yl-O-(hydroxy-tert-butyl-S-acyl-2-thioethyl) phosphoramidate]
- metabolites observed in medium (% of total radioactivity) (monkey hepatocytes (lot Cy234), 10 μM [^14C]-Compound 1, 4 h): BLD
- metabolites observed in medium (% of total radioactivity) (monkey hepatocytes (lots Cy230, Cy234), 10 μM [^14C]-Compound 1, 0 h): BLD
- metabolites observed in medium (% of total radioactivity) (monkey hepatocytes (lots Cy230, Cy234), 10 μM [^14C]-Compound 1, 1 h): BLD
- metabolites observed in medium (% of total radioactivity) (monkey hepatocytes (lots Cy230, Cy234), 10 μM [^14C]-Compound 1, 24 h): 3.1% and 0.9%
